According to the supplement of paper PMC10307832:

Key:
Assay in all cases: relative viability (nuclei count vs DMSO), 5 days (fraction); higher = more cells survive
Vemurafenib + Bortezomib = compound: CCCS(=O)(=O)Nc1ccc(F)c(C(=O)c2c[nH]c3ncc(-c4ccc(Cl)cc4)cc23)c1F [Vemurafenib] + CC(C)C[C@H](NC(=O)[C@H](Cc1ccccc1)NC(=O)c1cnccn1)B(O)O [Bortezomib] (partner 0.002 µM)
Procedure, shortened: (§1)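 Cells from lung cancer lines were seeded into 1536-well plates and, one day later, dosed by pin tool. Treatments were either a single drug or a fixed dose of an anchor drug with five library-drug doses (not always all listed) in √10 steps. After 5 days, nuclei were stained in a one-step fixation (final 0.05% Triton X-100, 1% formaldehyde, 1 ug/ml Hoechst) and counted on 4× images, and relative viability is the treated-to-vehicle nuclei ratio, as the median of duplicate plates.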

Vemurafenib + Tozasertib = compound: CCCS(=O)(=O)Nc1ccc(F)c(C(=O)c2c[nH]c3ncc(-c4ccc(Cl)cc4)cc23)c1F [Vemurafenib] + Cc1cc(Nc2cc(N3CCN(C)CC3)nc(Sc3ccc(NC(=O)C4CC4)cc3)n2)n[nH]1 [Tozasertib] (partner 0.1 µM)
Procedure, shortened: as §1

Alpelisib + Bortezomib = compound: Cc1nc(NC(=O)N2CCC[C@H]2C(N)=O)sc1-c1ccnc(C(C)(C)C(F)(F)F)c1 [Alpelisib] + CC(C)C[C@H](NC(=O)[C@H](Cc1ccccc1)NC(=O)c1cnccn1)B(O)O [Bortezomib] (partner 0.002 µM)
Procedure, shortened: as §1

OSI-027 + Tozasertib = compound: COc1cccc2cc(-c3nc([C@H]4CC[C@H](C(=O)O)CC4)n4ncnc(N)c34)[nH]c12 [OSI-027] + Cc1cc(Nc2cc(N3CCN(C)CC3)nc(Sc3ccc(NC(=O)C4CC4)cc3)n2)n[nH]1 [Tozasertib] (partner 0.1 µM)
Procedure, shortened: as §1

| Cell Line | relative viability (Vemurafenib + Bortezomib; first compound 0.03162 µM) | relative viability (Vemurafenib + Bortezomib; first compound 0.3162 µM) | relative viability (Vemurafenib + Bortezomib; first compound 1 µM) | relative viability (Vemurafenib + Tozasertib; first compound 0.03162 µM) | relative viability (Vemurafenib + Tozasertib; first compound 0.3162 µM) | relative viability (Vemurafenib + Tozasertib; first compound 1 µM) | relative viability (Alpelisib + Bortezomib; first compound 0.04 µM) | relative viability (Alpelisib + Bortezomib; first compound 0.1265 µM) | relative viability (Alpelisib + Bortezomib; first compound 0.4 µM) | relative viability (Alpelisib + Bortezomib; first compound 1.265 µM) | relative viability (Alpelisib + Bortezomib; first compound 4 µM) | relative viability (OSI-027 + Tozasertib; first compound 0.01 µM) | relative viability (OSI-027 + Tozasertib; first compound 0.03162 µM) | relative viability (OSI-027 + Tozasertib; first compound 0.1 µM) | relative viability (OSI-027 + Tozasertib; first compound 0.3162 µM) | relative viability (OSI-027 + Tozasertib; first compound 1 µM) | relative viability (Vemurafenib + Bortezomib; first compound 0.1 µM) | relative viability (Vemurafenib + Tozasertib; first compound 0.1 µM) |
| --- | --- | --- | --- | --- | --- | --- | --- | --- | --- | --- | --- | --- | --- | --- | --- | --- | --- | --- |
| EKVX | 0.895 | 1.03 | 1.05 | 0.351 | 0.383 | 0.326 | 1.09 | 1.05 | 1.05 | 0.953 | 1.02 | 0.299 | 0.358 | 0.406 | 0.349 | 0.269 | – | – |
| EMC-BAC-2 | 0.984 | 0.899 | 0.835 | 0.303 | 0.212 | 0.237 | 1.02 | 1.01 | 1.22 | 0.929 | 0.741 | 0.281 | 0.284 | 0.254 | 0.287 | 0.24 | 1.02 | 0.28 |
| EPLC-272H | 0.857 | 0.812 | 0.867 | 0.277 | 0.281 | 0.182 | 0.902 | 0.911 | 1.13 | 0.904 | 0.622 | 0.139 | 0.277 | 1.01 | 0.162 | 0.143 | 0.749 | 0.106 |
| H3255 | 0.802 | 0.612 | 0.681 | 0.603 | 0.644 | 0.619 | 0.852 | 0.648 | 1.2 | 0.48 | 0.444 | 0.749 | 0.62 | 0.604 | 0.555 | 0.436 | – | – |
| HARA | 1.08 | 0.603 | 1.12 | 0.0946 | 0.138 | 0.12 | 0.976 | 1.09 | 1.34 | 1.01 | 0.766 | 0.472 | 0.099 | 0.115 | 0.0843 | 0.106 | – | 0.0784 |
